Experimental data from US6809091B1, “Substances capable of inducing apoptosis” (Takara Bio Inc., priority 1998, dated 2004).

Experiments:
HL-60 cells = experiment: measurement of apoptosis cells using FACScan; format: cell-based, human; details: HL-60, 24 hours and 48 hours
Method: (2) HL-60 cells which were incubated on an RPMI 1640 medium containing 10% of fetal bovine serum processed at 56° C. for 30 minutes were suspended in an RPMI 1640 medium to make 2.5×10^5 cells/5 ml. […]

human TGF-β = experiment: cytokine production in DSEK cells, ELISA; format: cell-based; details: DSEK cell incubation, supernatant every 24 hours
Method: (§1) Now, in the DSEK cell incubation, 150 μl/well of the supernatant liquid of the medium were recovered every 24 hours and influence of 4-hydroxy-2-cyclopenten-1-one or 4,5-dihydroxy-2-pentenal on the production of cytokines (human TGF-β, human FGF-β, human IL-1α and human IL-10) was measured using an ELISA-kit specific to each of the cytokine (the kit manufactured by INTERGEN or human FGF-β and human IL-10; and the kit manufactured by Promega for human IL-1α and human TGF-β).

human IL-10 = experiment: cytokine production in DSEK cells, ELISA; format: cell-based; details: DSEK cell incubation, supernatant every 24 hours
Method: as §1

[1] = system: NO production in RAW 264.7 cells; experiment: inhibition of NO production, NO2− by Griess reagent; format: cell-based
Method: (1) RAW 264.7 cells (ATCC TIB 71) were suspended to an extent of 3×10^5 cells/ml in an Eagle's medium modified by Dulbecco (manufactured by BioWhittaker; 12-917F) containing 10% fetal bovine serum (manufactured by Gibco), no Phenol Red and 2 mM of L-glutamine (manufactured by Lifetech Oriental; 25030-149) and each 500 μl of the suspension were added to each well of a 48-well microtiter plate and incubated at 37° C. for 12 hours in the presence of 5% carbon dioxide gas. To the well were added 10 μl of a 50 μg/ml lipopolysaccharide (LPS; manufactured by Sigma, L-2012) or each 10 μl of a 2.5 μg/ml of LPS and a 500 units/ml of interferon γ (manufactured by Genzyme; code MG-IFN), then 10 μl of a 1000, 500 or 250 μM aqueous solution of 2-(trans-3,4-dihydroxy-1-butenyl)-4-(trans-2-formylvinyl)-1,3-dioxolane were added, the mixture was incubated for 18 hours more and the NO2^− concentration generated by oxidation of NO in the medium was measured. Incidentally, a section to which LPS and interferon γ were not added and a section to which 2-(trans-3,4-dihydroxy-1-butenyl)-4-(trans-2-formylvinyl)-1,3-dioxolane was not added were prepared as controls.
After the above incubation, 100 μl of a 4% Griess reagent (manufactured by Sigma; G4410) were added to 100 μl of the medium, the mixture was allowed to stand at room temperature for 15 minutes and the absorbance at 490 nm was measured. From a calibration curve prepared by NaNO2 of known concentrations dissolved in the above medium, the NO2^− concentration in the medium was calculated. All measurements were conducted in three series.

RAW 264.7 cells = experiment: cell growth in the NO production test; format: cell-based; details: final concentration of 10 μM

Nc1nc2c(ncn2C2C=CC(=O)C2)c(=O)[nH]1 (stereo not shown) [4-(9-guaninyl)-2-cyclopenten-1-one]
final concentration at which apoptosis cells were confirmed (HL-60 cells): ≥ 20 µM | production of human TGF-β (human TGF-β): inhibited

O=CC=CC(O)CO (single isomer, unassigned) [4,5-dihydroxy-2-pentenal, trans-4,5-dihydroxy-2-pentenal]
production of human IL-10 (human IL-10): activated

O=C/C=C/C1COC(/C=C/C(O)CO)O1 (stereo not drawn) [2-(trans-3,4-dihydroxy-1-butenyl)-4-(trans-2-formylvinyl)-1,3-dioxolane]
induction of NO production by LPS ([1]; 18 hours): inhibited | induction of NO production by LPS and interferon γ ([1]; 18 hours): inhibited | inhibition at 10 µM ([1]; Mus musculus, RAW264.7, final concentration of 10 μM, read-out: inhibiting activity for NO production): ~50% | inhibition of cell growth (RAW 264.7 cells): no inhibition of cell growth was noted at all
